Assays:
Assay type in all cases: biochemical
[1] = biological target: T1, LRRK2 wild type (recombinant human, catalytic domain amino acids 970-2527, GST-tagged) (Homo sapiens, UniProt Q5S007); assay: LRRK2 wild type protein kinase assay ([γ-33P] ATP, peptide substrate […]), IC50; settings: LRRK2 (variant not given); read-out: Potency score, LRRK2 IC50
T1 construct: The wild type used was recombinant human, catalytic domain (amino acids 970-2527) GST-tagged, expressed in insect cells; GST; purchased Invitrogen Corporation PV4873; host or cells: insect cells
Method in brief: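 Insect-cell-expressed enzyme (~5 nM), no activation, incubated 180 min at ~21 °C in 50 mM Tris-HCl pH 7.5, 0.1 mM EGTA, 1 mM DTT, 10 mM MgCl2 with 100 μM peptide substrate and [γ-33P]ATP. Reaction stopped with orthophosphoric acid, captured on P81 filters and counted; IC50 from 10 concentrations in duplicate.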

[2] = biological target: each specific kinase (kinase selectivity panel, Table 2) (Homo sapiens, UniProt P17252); assay: Kinase selectivity: percentage inhibition of each specific kinase at 1 μM inhibitor concentration; settings: PKCa
Procedure: (§1) Values are expressed as percentage inhibition of the each specific kinase at 1 μM inhibitor concentration.

[3] = biological target: each specific kinase (kinase selectivity panel, Table 2) (Homo sapiens, UniProt P14616); assay: as above; settings: IRR
Procedure: as §1

[4] = biological target: each specific kinase (kinase selectivity panel, Table 2) (Homo sapiens, UniProt Q13188); assay: as above; settings: MST2
Procedure: as §1

[5] = biological target: each specific kinase (kinase selectivity panel, Table 2) (Homo sapiens, UniProt Q9H2X6); assay: as above; settings: HIPK2
Procedure: as §1

[6] = biological target: each specific kinase (kinase selectivity panel, Table 2) (Homo sapiens, UniProt Q16539); assay: as above; settings: p38a MAPK
Procedure: as §1

[7] = biological target: each specific kinase (kinase selectivity panel, Table 2) (Homo sapiens, UniProt P12931); assay: as above; settings: Src
Procedure: as §1

[8] = biological target: each specific kinase (kinase selectivity panel, Table 2) (Homo sapiens, UniProt P27361); assay: as above; settings: ERK1
Procedure: as §1

[9] = biological target: each specific kinase (kinase selectivity panel, Table 2) (Homo sapiens, UniProt Q12851); assay: as above; settings: GCK
Procedure: as §1

[10] = biological target: each specific kinase (kinase selectivity panel, Table 2) (Homo sapiens, UniProt P51955); assay: as above; settings: NEK2a
Procedure: as §1

[11] = biological target: each specific kinase (kinase selectivity panel, Table 2) (Homo sapiens, UniProt P24941); assay: as above; settings: CDK2-Cyclin A
Procedure: as §1

[12] = biological target: each specific kinase (kinase selectivity panel, Table 2) (Homo sapiens, UniProt O96013); assay: as above; settings: PAK4
Procedure: as §1

[13] = biological target: each specific kinase (kinase selectivity panel, Table 2) (Homo sapiens, UniProt O14920); assay: as above; settings: IKKb
Procedure: as §1

[14] = biological target: each specific kinase (kinase selectivity panel, Table 2) (Homo sapiens, UniProt O00418); assay: as above; settings: EF2K
Procedure: as §1

[15] = biological target: each specific kinase (kinase selectivity panel, Table 2) (Homo sapiens, UniProt Q9P289); assay: as above; settings: MST4
Procedure: as §1

[16] = biological target: each specific kinase (kinase selectivity panel, Table 2) (Homo sapiens, UniProt Q9NWZ3); assay: as above; settings: IRAK4
Procedure: as §1

[17] = biological target: each specific kinase (kinase selectivity panel, Table 2) (Homo sapiens, UniProt Q9UHD2); assay: as above; settings: TBK1
Procedure: as §1

[18] = biological target: each specific kinase (kinase selectivity panel, Table 2) (Homo sapiens, UniProt Q9BUB5); assay: as above; settings: MNK1
Procedure: as §1

[19] = biological target: each specific kinase (kinase selectivity panel, Table 2) (Homo sapiens, UniProt P28482); assay: as above; settings: ERK2
Procedure: as §1

[20] = biological target: each specific kinase (kinase selectivity panel, Table 2) (Homo sapiens, UniProt P06213); assay: as above; settings: IR
Procedure: as §1

[21] = biological target: each specific kinase (kinase selectivity panel, Table 2) (Homo sapiens, UniProt Q13627); assay: as above; settings: DYRK1A
Procedure: as §1

[22] = biological target: each specific kinase (kinase selectivity panel, Table 2) (Homo sapiens, UniProt P48730); assay: as above; settings: CK1
Procedure: as §1

[23] = biological target: each specific kinase (kinase selectivity panel, Table 2) (Homo sapiens, UniProt P41240); assay: as above; settings: CSK
Procedure: as §1

[24] = biological target: each specific kinase (kinase selectivity panel, Table 2) (Homo sapiens, UniProt Q8IWQ3); assay: as above; settings: BRSK2
Procedure: as §1

[25] = biological target: each specific kinase (kinase selectivity panel, Table 2) (Homo sapiens, UniProt O60674); assay: as above; settings: JAK2
Procedure: as §1

Sequence of each specific kinase (kinase selectivity panel, Table 2) (Homo sapiens, UniProt O00418) (O00418 whole entry): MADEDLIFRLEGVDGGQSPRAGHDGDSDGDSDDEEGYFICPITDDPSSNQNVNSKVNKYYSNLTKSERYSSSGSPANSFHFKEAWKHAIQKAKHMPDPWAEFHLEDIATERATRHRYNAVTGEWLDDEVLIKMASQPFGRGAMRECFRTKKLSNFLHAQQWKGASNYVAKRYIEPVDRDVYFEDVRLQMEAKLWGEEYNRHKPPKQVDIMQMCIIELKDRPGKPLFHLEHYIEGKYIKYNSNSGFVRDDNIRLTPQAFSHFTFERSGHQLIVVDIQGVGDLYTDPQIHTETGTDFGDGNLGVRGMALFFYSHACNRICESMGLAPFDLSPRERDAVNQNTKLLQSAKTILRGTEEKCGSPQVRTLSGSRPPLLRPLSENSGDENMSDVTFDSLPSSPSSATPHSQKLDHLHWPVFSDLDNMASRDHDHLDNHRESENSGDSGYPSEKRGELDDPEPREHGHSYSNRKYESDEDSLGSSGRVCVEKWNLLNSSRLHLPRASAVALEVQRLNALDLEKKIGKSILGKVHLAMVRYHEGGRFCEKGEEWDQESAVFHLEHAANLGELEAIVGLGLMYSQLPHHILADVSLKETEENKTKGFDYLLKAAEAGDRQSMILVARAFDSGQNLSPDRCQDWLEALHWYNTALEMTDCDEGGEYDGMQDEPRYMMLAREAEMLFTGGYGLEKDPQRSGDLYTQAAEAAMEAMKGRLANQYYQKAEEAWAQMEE
Sequence of each specific kinase (kinase selectivity panel, Table 2) (Homo sapiens, UniProt O96013) (O96013 whole entry): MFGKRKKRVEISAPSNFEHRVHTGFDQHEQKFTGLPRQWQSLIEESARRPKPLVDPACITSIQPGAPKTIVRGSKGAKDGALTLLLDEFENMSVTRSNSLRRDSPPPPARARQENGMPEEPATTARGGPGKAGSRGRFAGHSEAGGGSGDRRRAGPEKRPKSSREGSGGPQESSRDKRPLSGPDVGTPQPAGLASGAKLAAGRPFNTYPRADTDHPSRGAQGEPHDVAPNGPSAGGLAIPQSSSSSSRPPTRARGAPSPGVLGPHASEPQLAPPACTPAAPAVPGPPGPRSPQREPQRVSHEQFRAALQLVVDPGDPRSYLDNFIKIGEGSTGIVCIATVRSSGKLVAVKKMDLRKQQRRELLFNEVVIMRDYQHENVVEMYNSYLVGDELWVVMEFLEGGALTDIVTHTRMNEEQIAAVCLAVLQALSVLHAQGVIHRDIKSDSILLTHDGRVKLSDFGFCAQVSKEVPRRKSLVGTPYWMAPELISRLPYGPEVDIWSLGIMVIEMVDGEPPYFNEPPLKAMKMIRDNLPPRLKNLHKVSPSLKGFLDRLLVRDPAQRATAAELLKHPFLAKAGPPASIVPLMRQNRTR
Sequence of each specific kinase (kinase selectivity panel, Table 2) (Homo sapiens, UniProt P14616) (P14616 27-1297): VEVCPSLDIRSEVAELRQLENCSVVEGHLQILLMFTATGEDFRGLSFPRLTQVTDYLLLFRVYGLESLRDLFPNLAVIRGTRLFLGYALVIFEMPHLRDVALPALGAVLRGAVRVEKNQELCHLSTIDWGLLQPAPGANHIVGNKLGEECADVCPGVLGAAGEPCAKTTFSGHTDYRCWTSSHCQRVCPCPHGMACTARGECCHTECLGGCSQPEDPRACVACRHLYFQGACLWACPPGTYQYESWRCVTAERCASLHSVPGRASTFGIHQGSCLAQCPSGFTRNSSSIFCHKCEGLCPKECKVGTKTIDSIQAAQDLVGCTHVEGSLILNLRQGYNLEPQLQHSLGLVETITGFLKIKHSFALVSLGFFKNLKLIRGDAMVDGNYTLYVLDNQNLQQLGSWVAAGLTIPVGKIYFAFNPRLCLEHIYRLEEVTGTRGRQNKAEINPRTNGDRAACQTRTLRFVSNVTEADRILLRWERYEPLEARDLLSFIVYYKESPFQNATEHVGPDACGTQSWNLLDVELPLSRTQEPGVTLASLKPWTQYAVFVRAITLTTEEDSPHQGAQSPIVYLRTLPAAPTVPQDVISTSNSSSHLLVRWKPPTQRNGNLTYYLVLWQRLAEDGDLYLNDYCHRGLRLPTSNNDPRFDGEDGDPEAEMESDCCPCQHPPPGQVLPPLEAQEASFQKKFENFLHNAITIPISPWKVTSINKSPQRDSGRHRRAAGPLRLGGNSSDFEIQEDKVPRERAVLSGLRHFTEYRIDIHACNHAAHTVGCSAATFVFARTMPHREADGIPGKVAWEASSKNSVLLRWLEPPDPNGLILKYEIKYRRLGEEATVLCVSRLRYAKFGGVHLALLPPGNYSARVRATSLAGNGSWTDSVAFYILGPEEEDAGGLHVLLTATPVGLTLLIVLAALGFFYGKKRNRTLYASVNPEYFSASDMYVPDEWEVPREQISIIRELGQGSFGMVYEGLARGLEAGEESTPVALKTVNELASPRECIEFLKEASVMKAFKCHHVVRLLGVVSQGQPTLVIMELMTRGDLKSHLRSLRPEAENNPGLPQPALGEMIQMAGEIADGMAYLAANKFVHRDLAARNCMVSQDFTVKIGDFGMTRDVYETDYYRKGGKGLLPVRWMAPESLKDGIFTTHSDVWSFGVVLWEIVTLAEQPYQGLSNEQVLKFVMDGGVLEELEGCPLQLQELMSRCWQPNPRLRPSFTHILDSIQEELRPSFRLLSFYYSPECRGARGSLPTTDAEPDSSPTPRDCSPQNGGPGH
Sequence of each specific kinase (kinase selectivity panel, Table 2) (Homo sapiens, UniProt P27361) (P27361 whole entry): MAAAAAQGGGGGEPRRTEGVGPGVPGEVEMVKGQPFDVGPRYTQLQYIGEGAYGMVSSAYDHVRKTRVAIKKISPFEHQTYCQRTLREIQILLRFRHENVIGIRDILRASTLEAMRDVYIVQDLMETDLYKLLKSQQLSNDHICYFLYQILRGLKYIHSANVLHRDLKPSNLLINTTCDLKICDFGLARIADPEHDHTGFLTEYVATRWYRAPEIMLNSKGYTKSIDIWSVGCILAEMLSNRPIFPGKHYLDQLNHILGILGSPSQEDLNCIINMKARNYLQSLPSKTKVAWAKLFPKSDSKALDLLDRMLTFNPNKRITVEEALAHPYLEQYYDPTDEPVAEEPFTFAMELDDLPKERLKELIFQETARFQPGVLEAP
Sequence of each specific kinase (kinase selectivity panel, Table 2) (Homo sapiens, UniProt Q13188) (Q13188 whole entry): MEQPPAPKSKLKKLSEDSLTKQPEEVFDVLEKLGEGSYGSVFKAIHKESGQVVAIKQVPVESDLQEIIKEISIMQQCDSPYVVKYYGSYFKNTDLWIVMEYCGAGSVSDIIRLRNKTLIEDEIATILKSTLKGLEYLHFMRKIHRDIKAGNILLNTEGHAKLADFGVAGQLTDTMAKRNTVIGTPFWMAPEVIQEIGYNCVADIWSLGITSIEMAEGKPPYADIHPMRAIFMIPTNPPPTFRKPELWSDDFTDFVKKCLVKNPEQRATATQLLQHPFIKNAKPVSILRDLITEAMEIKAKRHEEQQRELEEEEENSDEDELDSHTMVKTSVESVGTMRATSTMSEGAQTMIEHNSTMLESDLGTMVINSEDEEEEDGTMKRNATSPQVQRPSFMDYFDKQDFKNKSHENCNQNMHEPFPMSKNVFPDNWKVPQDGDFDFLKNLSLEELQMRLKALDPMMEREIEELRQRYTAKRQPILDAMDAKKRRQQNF
Sequence of each specific kinase (kinase selectivity panel, Table 2) (Homo sapiens, UniProt O14920) (O14920 whole entry): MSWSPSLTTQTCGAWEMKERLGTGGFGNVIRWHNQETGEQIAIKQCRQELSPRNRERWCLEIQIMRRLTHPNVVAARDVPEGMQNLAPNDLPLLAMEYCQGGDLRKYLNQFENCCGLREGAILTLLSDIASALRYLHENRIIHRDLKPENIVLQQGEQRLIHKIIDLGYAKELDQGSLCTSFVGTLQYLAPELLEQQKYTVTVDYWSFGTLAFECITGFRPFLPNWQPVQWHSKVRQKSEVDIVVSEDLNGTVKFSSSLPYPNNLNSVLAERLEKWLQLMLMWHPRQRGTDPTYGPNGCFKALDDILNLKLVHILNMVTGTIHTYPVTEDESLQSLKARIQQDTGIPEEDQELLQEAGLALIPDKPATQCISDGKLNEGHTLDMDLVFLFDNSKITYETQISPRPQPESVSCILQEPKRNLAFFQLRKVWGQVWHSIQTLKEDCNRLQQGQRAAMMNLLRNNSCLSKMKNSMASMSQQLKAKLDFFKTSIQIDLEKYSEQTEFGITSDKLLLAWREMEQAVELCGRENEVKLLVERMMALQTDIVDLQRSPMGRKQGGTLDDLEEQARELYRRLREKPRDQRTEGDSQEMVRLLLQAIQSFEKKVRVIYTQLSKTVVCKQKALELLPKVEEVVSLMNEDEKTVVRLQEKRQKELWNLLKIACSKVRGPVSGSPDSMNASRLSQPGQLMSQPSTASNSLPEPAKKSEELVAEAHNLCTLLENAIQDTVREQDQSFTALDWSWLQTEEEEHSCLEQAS

Structure (SMILES) | IC50 [1] | percentage inhibition of PKCa [2] | percentage inhibition of IRR [3] | percentage inhibition of MST2 [4] | percentage inhibition of HIPK2 [5] | percentage inhibition of p38a MAPK [6] | percentage inhibition of Src [7] | percentage inhibition of ERK1 [8] | percentage inhibition of GCK [9] | percentage inhibition of NEK2a [10] | percentage inhibition of CDK2-Cyclin A [11] | percentage inhibition of PAK4 [12] | percentage inhibition of IKKb [13] | percentage inhibition of EF2K [14] | percentage inhibition of MST4 [15] | percentage inhibition of IRAK4 [16] | percentage inhibition of TBK1 [17] | percentage inhibition of MNK1 [18] | percentage inhibition of ERK2 [19] | percentage inhibition of IR [20] | further results
CC[C@H](C)Oc1nccc2[nH]nc(C)c12 [Example 121, 4-((S)-sec-Butoxy)-3-methyl-1H-pyrazolo[4,3-c]pyridine] | < 0.1 µM | 2 percentage | 22 percentage | 55 percentage | 0 percentage | 0 percentage | 0 percentage | 1 percentage | 68 percentage | 0 percentage | 61 percentage | 26 percentage | 15 percentage | 0 percentage | 23 percentage | 12 percentage | 6 percentage | 1 percentage | 0 percentage | 8 percentage | percentage inhibition of DYRK1A [21]: 27 percentage; percentage inhibition of CK1 [22]: 31 percentage; percentage inhibition of CSK [23]: 6 percentage; percentage inhibition of BRSK2 [24]: 13 percentage; percentage inhibition of JAK2 [25]: 47 percentage
O=C(CCc1n[nH]c2ccnc(NC3CCCCC3)c12)N1CCC[C@H](c2ccccc2)C1 [Example 172, 3-(4-Cyclohexylamino-1H-pyrazolo[4,3-c]pyridin-3-yl)-1-((R)-3-phenyl-piperidin-1-yl)-propan-1-one] | < 0.1 µM | 0 percentage | 15 percentage | 10 percentage | 0 percentage | 6 percentage | 6 percentage | 0 percentage | 19 percentage | 5 percentage | 0 percentage | 24 percentage | 22 percentage | 0 percentage | 10 percentage | 0 percentage | 14 percentage | 0 percentage | 9 percentage | 4 percentage | percentage inhibition of DYRK1A [21]: 27 percentage; percentage inhibition of CK1 [22]: 6 percentage; percentage inhibition of CSK [23]: 11 percentage; percentage inhibition of BRSK2 [24]: 0 percentage; percentage inhibition of JAK2 [25]: 12 percentage

From patent US20170320870A1 (Medical Research Council Technology, priority 2009, published 2017)
